This is an account of results in patent US20240109873A1, “ANTAGONISTS OF THE MUSCARINIC ACETYLCHOLINE RECEPTOR M4” (Vanderbilt University, priority 2020, published 2024).

One assay deals with T1, human mAChR M4 (Homo sapiens, UniProt P08173).
T1 construct: expressed in transfected cells; host or cells: CHO-K1 (ATCC), co-transfected with chimeric G protein Gqi5
T1 sequence (P08173 1-479): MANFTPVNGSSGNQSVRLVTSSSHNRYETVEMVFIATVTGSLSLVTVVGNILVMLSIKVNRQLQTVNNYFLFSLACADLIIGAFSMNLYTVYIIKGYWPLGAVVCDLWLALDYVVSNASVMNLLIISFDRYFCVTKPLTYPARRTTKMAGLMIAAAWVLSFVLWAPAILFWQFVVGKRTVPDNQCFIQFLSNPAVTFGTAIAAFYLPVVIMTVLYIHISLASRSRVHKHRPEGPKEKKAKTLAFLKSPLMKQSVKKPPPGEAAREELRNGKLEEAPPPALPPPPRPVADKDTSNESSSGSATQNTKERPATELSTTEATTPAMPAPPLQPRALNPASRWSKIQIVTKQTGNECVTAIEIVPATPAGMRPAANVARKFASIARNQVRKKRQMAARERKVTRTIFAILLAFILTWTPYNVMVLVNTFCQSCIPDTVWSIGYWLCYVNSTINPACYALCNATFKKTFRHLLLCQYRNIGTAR
As to the kind of experiment: mAChR M4 cell-based functional assay (calcium flux, antagonism of EC80 acetylcholine response, M4/Gqi5/CHO-K1 cells). The conditions noted are these: for remaining activity at 30 µM: CHO-K1, % ACh maximum at 30 μM, read-out: Human M4 Emin; for IC50: decrease of the response elicited by an EC80 concentration of acetylcholine, CHO-K1 cells, Gqi5. A digest of the protocol: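 CHO-K1 cells stably expressing human M4 with chimeric Gqi5, loaded with Fluo-4 AM; calcium flux read on FDSS. Compounds (10-point, 1:3 curves) added first, then EC20 acetylcholine at 143 s and EC80 at 268 s. IC50 from decrease of EC80 acetylcholine response, four-parameter logistic fit.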
(A change in cytosolic calcium serves as a functional read-out for many receptors and channels.)

For another assay, the system named is mice. As to the kind of experiment: haloperidol-induced catalepsy, a model of parkinsonian motor disability. The assay is classed as in vivo. The text has this: Furthermore, haloperidol-induced catalepsy, a model of parkinsonian motor disability, is reduced in M4 knockout mice as compared to wild-type controls. […] The reversal by scopolamine was uncommonly robust and more pronounced than we observe with agents targeting a number of other targets being evaluated for potential antiparkinsonian effects, including metabotropic glutamate (mGlu) receptors mGlu4 or mGlu5, A2A adenosine receptors, and NMDA receptors. […] Taken together with the extensive studies of M4 modulation of basal ganglia and motor function, these studies provide compelling evidence that M4 is the dominant mAChR subtype involved in the antiparkinsonian effects of non-selective mAChR antagonists and provide support for discovery and development of selective M4 antagonists for treatment of neurodegenerative disease such as PD, dystonia, tardive dyskinesia and other movement disorders.

Structures are written as SMILES.

A word on the IC50: it is the concentration needed to halve the response being measured. As to `[2H]C([2H])([C@H]1COCCO1)N1C[C@H]2C[C@H](Nc3ccc(-c4cccnc4C(F)(F)F)nn3)C[C@H]2C1` [Compound 51, (3aR,5s,6aS)-2-(((S)-1,4-dioxan-2-yl)methyl-d2)-N-(6-(2-(trifluoromethyl)pyridin-3-yl)pyridazin-3-yl)octahydrocyclopenta[c]pyrrol-5-amine], at human mAChR M4, the remaining activity at 30 µM is 2% and the IC50 came out at 1.4 nM.
For `[2H]C([2H])(C1CCCOCC1)N1C[C@H]2C[C@H](Nc3ccc(-c4cccnc4C(F)(F)F)nn3)C[C@H]2C1` (stereo partly drawn) [Compound 52, (3aR,5s,6aS)-2-(oxepan-4-ylmethyl-d2)-N-(6-(2-(trifluoromethyl)pyridin-3-yl)pyridazin-3-yl)octahydrocyclopenta[c]pyrrol-5-amine] the same measures were 2% and 0.58 nM.
On to `[2H]C([2H])(C1CCOCC1(C)C)N1C[C@H]2C[C@H](Nc3ccc(-c4cccnc4C(F)(F)F)nn3)C[C@H]2C1` (stereo partly drawn) [Compound 53, (3aR,5s,6aS)-2-((3,3-dimethyltetrahydro-2H-pyran-4-yl)methyl-d2)-N-(6-(2-(trifluoromethyl)pyridin-3-yl)pyridazin-3-yl)octahydrocyclopenta[c]pyrrol-5-amine], for which, on human mAChR M4, the remaining activity at 30 µM came out at 3% and the IC50 came out at 2.9 nM.
For `[2H]C([2H])(C1CC2(CC2)CO1)N1C[C@H]2C[C@H](Nc3ccc(-c4cccnc4C(F)(F)F)nn3)C[C@H]2C1` (stereo partly drawn) [Compound 54, (3aR,Ss,6aS)-2-((5-oxaspiro[2.4]heptan-6-yl)methyl-d2)-N-(6-(2-(trifluoromethyl)pyridin-3-yl)pyridazin-3-yl)octahydrocyclopenta[c]pyrrol-5-amine] the same measures were 2% and 0.69 nM.
For `[2H]C([2H])(N1C[C@H]2C[C@H](Nc3ccc(-c4cccnc4C(F)(F)F)nn3)C[C@H]2C1)C12COC(C)(C1)C2` [Compound 55, (3aR,5s,6aS)-2-((1-methyl-2-oxabicyclo[2.1.1]hexan-4-yl)methyl-d2)-N-(6-(2-(trifluoromethyl)pyridin-3-yl)pyridazin-3-yl)octahydrocyclopenta[c]pyrrol-5-amine] the same measures were 3% and 5.5 nM.
For `[2H]C([2H])(C1CCOC2(CCC2)C1)N1C[C@H]2C[C@H](Nc3ccc(-c4cccnc4C(F)(F)F)nn3)C[C@H]2C1` (stereo partly drawn) [Compound 60, (3aR,5s,6aS)-2-((5-oxaspiro[3.5]nonan-8-yl)methyl-d2)-N-(6-(2-(trifluoromethyl)pyridin-3-yl)pyridazin-3-yl)octahydrocyclopenta[c]pyrrol-5-amine] the same measures were 4% and 1.4 nM.
On to `CN1[C@@H]2C[C@@H](OC(=O)[C@H](CO)c3ccccc3)C[C@H]1[C@@H]1O[C@@H]12` [scopolamine], for which, in the assay with mice (M4 KO mice), the “reduction of catalepsy induced by haloperidol” value is listed as “ineffective in reducing catalepsy”. Besides, the “reversal of catalepsy induced by haloperidol” value with mice (WT mice) is on record as “completely reversed”.
